# Laboratory results reported in patent US12649059B2, “Methods for reducing bleeding in hemophilia by vagus nerve stimulation to prime platelets” (The Feinstein Institutes for Medical Research, priority 2022, dated 2026).
# Read-outs that look alike come from different tables or passages of the source.
# Assays:
# a7nAChR [1] = biological target: a7nAChR (Mus musculus, UniProt P49582)
# Description: (§1) To confirm platelet a7nAChR modulates hemostasis, we first administered the pharmacological a7nAChR agonist nicotine to wild-type mice before tail injury. […] To restrict a7nAChR to platelets, we transferred platelets from wild-type or a7KO donor mice into a7nAChR-deficient animals before tail transection.
# (§2) Mice are screened before study inclusion to ensure visual similarity and consistency between the anatomy of the tail tips and the site of transection. […] Following vagus nerve stimulation or sham surgery, tails are immersed in water at 37+1° C. for five minutes. Tails are then removed from the solution, amputated 2 mm from the tip with a razor blade, and immediately placed into a 50 mL beaker containing water at 37+1° C. Tails are allowed to bleed uncontrolled until bleeding stops for a minimum of ten seconds. This duration of bleeding is recorded as bleeding time. For analyses of bleeding in factor VIII deficient mice, tails are first immersed in 0.9% saline at 37±1° C. for five minutes. Tails are then removed and amputated 2 mm from the tip with a razor blade. Tails are then placed into a 50 mL conical tube containing 0.9% saline at 37±1° C. Tails are allowed to bleed freely for a total of ten minutes. Total blood loss is determined by densitometry by measuring absorbance at 550 nm. A standard curve is created from a known volume of blood.
# a7nAChR [2] = test system: a7nAChR
# Description: as §1, §2
# Sequence of a7nAChR (Mus musculus, UniProt P49582) (P49582 23-502): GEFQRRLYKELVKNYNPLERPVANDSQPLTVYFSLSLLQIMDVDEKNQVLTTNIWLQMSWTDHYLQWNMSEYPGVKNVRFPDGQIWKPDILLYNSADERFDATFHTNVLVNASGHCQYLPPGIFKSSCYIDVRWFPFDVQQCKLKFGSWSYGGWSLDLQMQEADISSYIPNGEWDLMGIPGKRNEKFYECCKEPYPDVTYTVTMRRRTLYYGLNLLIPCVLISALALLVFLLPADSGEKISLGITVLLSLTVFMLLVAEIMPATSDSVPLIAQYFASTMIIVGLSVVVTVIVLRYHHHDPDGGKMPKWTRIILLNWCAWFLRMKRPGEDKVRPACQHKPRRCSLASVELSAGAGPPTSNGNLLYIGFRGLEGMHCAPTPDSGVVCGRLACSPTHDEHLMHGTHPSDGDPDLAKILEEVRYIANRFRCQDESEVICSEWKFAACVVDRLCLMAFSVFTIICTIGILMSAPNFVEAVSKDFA
smiles,measurement,setting,value
CN1CCCC1c1cccnc1 (stereo not shown) [nicotine],bleeding time as compared with vehicle treatment,"a7nAChR [1]; a7nAChR-deficient mice reconstituted with wild-type platelets, FIG. 2H, p<0.05 vs. vehicle control",significantly reduces bleeding time
same,bleeding time as compared with vehicle treatment,"a7nAChR [1]; wild-type mice, nicotine before tail injury, FIG. 2G, p<0.01 vs. vehicle control",significantly decreases bleeding time
same,bleeding time as compared with vehicle treatment,"a7nAChR [2]; a7nAChR-deficient mice receiving platelets from a7KO donors, FIG. 2H",not
same,bleeding time as compared with vehicle treatment,"a7nAChR [2]; a7nAChR-deficient mice, nicotine before tail transection, FIG. 2G",fails to reduce bleeding time
